Test results reported in patent US20240182456A1, “2-((4-((S)-2-(4-CHLORO-2-FLUOROPHENYL)-2-METHYLBENZO[D][1,3]DIOXOL-4-YL)PIPERIDIN-1-YL)METHYL)-1-(((S)-OXETAN-2-YL)METHYL)-1H-IMIDAZOLE DERIVATIVES AS ACTIVATORS OF THE GLP1 RECEPTOR FOR THE TREATMENT OF OBESITY” (Novartis AG, priority 2021, published 2024).
Read-outs that look alike come from different tables or passages of the source.

Tests used:
[1] = target: human GLP1R (hGLP1R) (Homo sapiens, UniProt P43220); experiment: Human GLP1R cAMP agonist assay (GloSensor); type: cell-based; conditions: for Emax: read-out: Emax mean; for EC50: intracellular cAMP, mean n=3 where SEM is given
Procedure: (§1) Compounds 1 to 31 were tested in the following cellular assays that measure the intracellular cAMP concentration, beta-arrestin recruitment and receptor internalization. The cAMP is generated by the activation of GLP1R. The cAMP data obtained is shown in Table 1 (where S.E.M. is included, mean n=3 independent experiments+/−S.E.M). Beta-arrestin is recruited upon activation of GLP1R and the data obtained are shown in Table 2 (mean n=2 independent experiments, +/−S.D). The extent to which the GLP1R is internalized into the cell and away from the plasma membrane following activation is also shown in Table 2 (mean n=2 independent experiments, +/−S.D). EC50 for each assay is defined as the concentration of the compound that leads to half of the maximum response (after baseline correction). Emax is defined as the maximum response observed for the test compound, normalized to the maximum response observed for the endogenous ligand (GLP1(7-36)) to GLP1R.
Human GLP1R cAMP Agonist Assay
The agonist activity of compounds was determined using the GloSensor™ cAMP Assay (Promega Corp.), which measures changes in the intracellular concentration of cAMP after ligand activation of GPCRs. The assay uses a biosensor encoded by pGloSensor™-22F cAMP plasmid (Promega, cat #E2301) with cAMP binding domains fused to a mutant form of Photinus pyralis luciferase. Binding to cAMP causes conformational changes that promote large increases in light output, which can be measured by a luminescence detector. HEK293-SNAP-hGLP1R-GloSensor cells stably overexpressing the human GLP1 receptor (hGLP1R) and pGloSensor™-22F were seeded in white 384-well poly-D-Lysine coated plates (Greiner Bio One, cat #781945) in CO2-independent media (Gibco cat #18045-088 with 1.0% FBS, 2 mM L-glutamine, penicillin and streptomycin) and incubated overnight at 37° C., 5% CO2 with humidity. The assay was started the following morning by adding an equal volume of CO2-independent media containing 4% v/v dilution of the GloSensor substrate (Promega, cat #E1291) to all wells. The cell plate was incubated at rt for 2 h in the dark. The Biomek 7 (Beckman Coulter) instrument was used for the liquid handling steps. To generate duplicate dose response curves, 3-fold serially diluted compounds were added in to the cell assay plate to a final volume of 60 μL with final concentrations ranging from 30 μM through 0.06 μM in CO2-independent media containing 0.1% BSA, 0.5 mM IBMX and 0.4% DMSO. In the same plate and assay buffer as the tested compounds, were EC100 control wells containing GLP1 (7-36) peptide (Bachem, cat #H-6795) at a final concentration of 2 nM and also EC0 control wells containing no peptide. This plate was incubated at rt in the dark for 12 min after adding the compounds to the cells. Luminescence was then measured with an Envision 2104 Multilabel reader with “TRF Light Unit, 337 nm” (PerkinElmer) using the Ultra-Sensitive protocol setting “384-well US luminescence detector” with the 384-well luminescence aperture, 0.1 seconds per well. cAMP activity was calculated as percent of the GLP1 (7-36) EC100 control wells: [(sample signal−mean EC0 signal)/(mean EC100 of GLP1 (7-36) signal−mean EC0 signal)}*100. Curve fitting for EC50 determinations was performed in the Helios module of the software package DAVID. The 4-parameter logistic model, Hill slope was used: y=Ainf+(A0−Ainf)/(1+(x/AC50)^Hill Slope) where y is the functional response; x is the compound concentration; A0 is the minimum value (at 0 dose); Ainf is the maximum value (at infinite dose); AC50 corresponds to the point of inflection (i.e. the point on the sigmoid shaped curve halfway between A0 and Ainf). The EC50 value was represented by the AC50 value calculated from Helios in μM. Emax is the maximal activity detected within the concentration range, derived from the fitted curve. […]

[2] = target: human GLP1R (Homo sapiens, UniProt P43220); experiment: Human GLP1R DERET internalization assay; type: cell-based; conditions: HEK293-SNAP-hGLP1R-GloSensor cells; for EC50: mean n=2; for Emax: relative to GLP1(7-36)
Procedure: as §1
The extent to which agonists internalize the human GLP1R was determined based on an optimized version of a RealTime FRET-based ‘DERET’ (Dissociation Enhanced Resonance Energy Transfer) assay. The technology relies on labeling of the SNAP-tagged GPCR with a SNAP-Lumi-Terbium (donor fluorophore, Cisbio, cat #SSNPTBD). The compounds are incubated with the cells over-expressing the GPCR of interest in the presence of an excess of fluorescein (acceptor fluorophore). When the GPCR is on the cell surface, the donor signal is quenched by the acceptor and the donor/acceptor ratio is low. As the GPCR internalizes, the donor signal is no longer quenched, and the acceptor is no longer excited so the donor/acceptor ratio increases.
HEK293-SNAP-hGLP1R-GloSensor cells (stably overexpressing SNAP-tagged hGLP1R) were seeded overnight in white 384-well poly-D-Lysine coated plates (Greiner Bio One, cat #781945) in regular DMEM growth medium (Gibco, cat #11965-092, 10% heat-inactivated FBS, 10 mM HEPES, 1× penicillin/streptomycin, 0.5 mg/mL geneticin (Gibco, cat #10131-035) and 0.25 mg/mL hygromycin B (Invitrogen, cat #10687010). On the assay day, cell medium was removed and 100 nM SNAP-Lumi-Tb reagent was added in Opti-MEM solution. The cells were incubated at 37° C. for 1 h. Cells were washed using a plate washer in assay buffer [1×HBSS (10× Gibco, cat #14065-056), 20 mM Hepes (Gibco, cat #15630-080), 1 mM CaCl2 (Fluka, cat #21114-1L), 1 mM MgCl2 (Ambion, cat #AM9530G) pH7.4], and 20 μL buffer with 0.1% BSA was added to each well. After leaving cells to equilibrate for ˜15 min at 37° C., 10 μL of Fluorescein (sodium salt, Sigma, cat #F6377, diluted in buffer) was added at 25 μM final concentration. To generate triplicate dose response curves, compounds were serially diluted 3-fold in assay buffer, then added to the cell assay plate to a final volume of 40 μL and final top concentrations starting at 30 μM. In the same plate and assay buffer as the tested compounds, a GLP1 (7-36) peptide (Bachem, cat #H-6795) control curve was included at a final top concentration of 1 μM in order to establish EC100. EC0 wells with buffer only were also included. The plate FRET fluorescence was measured immediately using a Perkin Elmer Envision with LANCE/DELFIA D400 single mirror, excitation filter X320, and emission filters M615_203 (donor emission) and M515 (acceptor emission), and then measured every 30 min. […] Plates were kept at 37° C. between reads. Data was expressed as the ratio of donor/acceptor emissions using Microsoft Excel and plotted in GraphPad Prism. In order to determine EC50 and Emax for internalization, data was calculated and expressed as percent of the GLP1 (7-36) EC100 control wells: [(sample signal−mean EC0 signal)/(mean EC100 of GLP1 (7-36) signal−mean EC0 signal)]*100 using Microsoft Excel. Curve fitting for EC50 determinations was performed using GraphPad Prism. The 4-parameter logistic model, Hill slope was used:
Y=Bottom+(Top−Bottom)/(1+10^((Log EC50−X)*Hill Slope)), […]

[3] = HEK293-SNAP-hGLP1R-GloSensor cells, cAMP, normalized to GLP1(7-36) maximum response
[4] = HEK293-SNAP-hGLP1R-GloSensor cells

Sequence of human GLP1R (hGLP1R) (P43220 24-463): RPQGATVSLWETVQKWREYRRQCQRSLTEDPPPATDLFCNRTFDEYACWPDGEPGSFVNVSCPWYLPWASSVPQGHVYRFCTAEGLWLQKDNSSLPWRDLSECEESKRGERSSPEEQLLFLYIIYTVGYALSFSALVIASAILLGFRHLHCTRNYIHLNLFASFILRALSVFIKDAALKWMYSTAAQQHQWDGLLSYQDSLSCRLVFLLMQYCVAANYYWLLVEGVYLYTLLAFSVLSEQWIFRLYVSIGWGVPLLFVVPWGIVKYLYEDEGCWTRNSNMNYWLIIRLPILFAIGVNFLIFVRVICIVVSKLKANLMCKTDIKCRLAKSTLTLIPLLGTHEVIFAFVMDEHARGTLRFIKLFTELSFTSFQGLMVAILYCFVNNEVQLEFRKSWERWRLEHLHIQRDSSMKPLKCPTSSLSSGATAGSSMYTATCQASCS
Sequence of human GLP1R (P43220 24-463): as above

| SMILES | Emax [1, 3] [%] | EC50 [1, 4] [nM] | EC50 [2] [nM] | Emax [2] [%] | Emax [1] [%] |
| --- | --- | --- | --- | --- | --- |
| Cc1c(-c2cncc(C(=O)O)c2)nc(CN2CCC(c3cccc4c3O[C@@](C)(c3ccc(Cl)cc3F)O4)CC2)n1C[C@@H]1CCO1 [Compound C-12, 5-(2-((4-((S)-2-(4-chloro-2-fluorophenyl)-2-methylbenzo[d][1,3]dioxol-4-yl)piperidin-1-yl)methyl)-5-methyl-1-(((S)-oxetan-2-yl)methyl)-1H-imidazol-4-yl)nicotinic acid] | 113 | 0.6 | > 30000 | 10 |  |
| C[C@]1(c2ccc(Cl)cc2F)Oc2cccc(C3CCN(Cc4nc(C(F)(F)F)c(-c5nnn[nH]5)n4C[C@@H]4CCO4)CC3)c2O1 [Compound C-24, 4-((S)-2-(4-chloro-2-fluorophenyl)-2-methylbenzo[d][1,3]dioxol-4-yl)-1-((1-(((S)-oxetan-2-yl)methyl)-5-(1H-tetrazol-5-yl)-4-(trifluoromethyl)-1H-imidazol-2-yl)methyl)piperidine] |  | 0.784 | > 30000 | -3 | 112 |
| C[C@]1(c2ccc(Cl)cc2F)Oc2cccc(C3CCN(Cc4nc(F)c(/C=C/C(=O)O)n4C[C@@H]4CCO4)CC3)c2O1 [Compound C-18, (E)-3-(2-((4-((S)-2-(4-chloro-2-fluorophenyl)-2-methylbenzo[d][1,3]dioxol-4-yl)piperidin-1-yl)methyl)-4-fluoro-1-(((S)-oxetan-2-yl)methyl)-1H-imidazol-5-yl)acrylic acid] | 116 | 0.0253 | 197 | 90 |  |
| Cc1nc(CN2CCC(c3cccc4c3O[C@@](C)(c3ccc(Cl)cc3F)O4)CC2)n(C[C@@H]2CCO2)c1C(=O)NCC(=O)O [Compound C-16, (2-((4-((S)-2-(4-chloro-2-fluorophenyl)-2-methylbenzo[d][1,3]dioxol-4-yl)piperidin-1-yl)methyl)-4-methyl-1-(((S)-oxetan-2-yl)methyl)-1H-imidazole-5-carbonyl)glycine] | 105 | 8.49 | > 30000 | 8 |  |
| Cc1nc(CN2CCC(c3cccc4c3O[C@@](C)(c3ccc(Cl)cc3F)O4)CC2)n(C[C@@H]2CCO2)c1/C=C(\F)C(=O)O [Compound C-19b, (Z)-3-(2-((4-((S)-2-(4-chloro-2-fluorophenyl)-2-methylbenzo[d][1,3]dioxol-4-yl)piperidin-1-yl)methyl)-4-methyl-1-(((S)-oxetan-2-yl)methyl)-1H-imidazol-5-yl)-2-fluoroacrylic acid] | 111 | 0.98 | > 30000 | 27 |  |
| C[C@]1(c2ccc(Cl)cc2F)Oc2cccc(C3CCN(Cc4nc(C(F)(F)F)c(-c5nc(=O)o[nH]5)n4C[C@@H]4CCO4)CC3)c2O1 [Compound C-26, 3-(2-((4-((S)-2-(4-chloro-2-fluorophenyl)-2-methylbenzo[d][1,3]dioxol-4-yl)piperidin-1-yl)methyl)-1-(((S)-oxetan-2-yl)methyl)-4-(trifluoromethyl)-1H-imidazol-5-yl)-1,2,4-oxadiazol-5(2H)-one] |  | 0.922 | > 30000 | -6 | 99 |
| Cc1nc(CN2CCC(c3cccc4c3O[C@@](C)(c3ccc(Cl)cc3F)O4)CC2)n(C[C@@H]2CCO2)c1/C=C(/F)C(=O)O [Compound C-19a, (E)-3-(2-((4-((S)-2-(4-chloro-2-fluorophenyl)-2-methylbenzo[d][1,3]dioxol-4-yl)piperidin-1-yl)methyl)-4-methyl-1-(((S)-oxetan-2-yl)methyl)-1H-imidazol-5-yl)-2-fluoroacrylic acid] | 110 | 0.0137 | 86 | 27 |  |
| Cc1c(-c2nc(=O)o[nH]2)nc(CN2CCC(c3cccc4c3O[C@@](C)(c3ccc(Cl)cc3F)O4)CC2)n1C[C@@H]1CCO1 [Compound C-21, 3-(2-((4-((S)-2-(4-chloro-2-fluorophenyl)-2-methylbenzo[d][1,3]dioxol-4-yl)piperidin-1-yl)methyl)-5-methyl-1-(((S)-oxetan-2-yl)methyl)-1H-imidazol-4-yl)-1,2,4-oxadiazol-5(2H)-one] | 104 | 0.297 | 1790 | 13 |  |
